The test system of test [1] is mouse peritoneal macrophages. The test can be described thus: Inhibition of production of cholesteryl ester from [14C] oleic acid in mouse peritoneal macrophages. The class given is cell-based. Conditions: for IC50: Peritoneal macrophage. As for the experimental part: Production of a cholesteryl ester in mouse peritoneal macrophages was performed by partly modifying the method by Nishikawa et al (Nishikawa et al., the Journal of Biological Chemistry (JBC) 265, pp. 5226-5231, 1990). Mouse peritoneal macrophages were prepared from an ICR female mouse as follows. First, cells were isolated from the mouse peritoneal cavity using a Hank's balanced salt solution (HBSS) and then suspended in a GIT medium so as to have a concentration of 2×10^6 cells/mL. Subsequently, 0.25 mL of the suspension was placed in each of 48 wells on a plastic culture plate, and the plate was cultured in the presence of 5% CO2 at 37° C. for two hours. In order to remove non-adhesive cells, each well was then washed with 0.25 mL of an HBSS three times. Finally, 0.25 mL of a culture medium A (Dulbecco's modified Eagle's medium (DMEM) containing 100 u/mL of penicillin, 100 μg/mL of streptomycin, and an 8% lipoprotein-free serum) was added thereto.
The effect of inhibiting the synthesis of a cholesteryl ester of the agents (eurypamides A, A′, B, and D, and Compounds (1) to (12)) in the macrophages thus prepared was evaluated as follows: The amount of [^14C] cholesteryl ester and [^14C] triacylglycerol synthesized from [^14C] oleic acid was measured as follows, and a concentration of the agent at which the synthesis was inhibited by 50% (IC50: μg/mL) was determined.
First, the macrophages (5×10^5 cells/0.25 mL/well) were cultured in a plastic culture plate with 48 wells. Subsequently, 5 μL of [^14C] oleic acid (1 nmol, 0.05 μCi, which was dissolved in a phosphate buffered saline (PBS) containing 10% ethanol), liposome (having a composition of phosphatidylcholine/phosphatidylserine/diacetylphosphate/cholesterol=10/10/2/5 (nmol) in 10 μL of 0.3 M glucose), and 2.5 μL of each agent dissolved in methanol were added to each well. The plate was cultured for 14 hours, and the culture medium was then removed. Each of the wells was washed with a PBS three times. Subsequently, 0.25 mL of a PBS containing 0.1% (w/v) sodium dodecyl sulfate (SDS) was added to each well to lyse the cells. Lipid in the cells was extracted by the method by Bligh & Dyer (Bligh & Dyer, Can. J. Biochem. Physiol., 37, pp. 911-917, 1959). The volume of the organic solvent was reduced by centrifugation in vacuum. The solution was spotted on a thin-layer chromatography (TLC) plate (silica gel […], thickness: 0.5 mm, manufactured by Merck Ltd.) and developed with hexane/diethyl ether/acetic acid (70/30/1, v/v). The amounts of separated [^14C] cholesteryl oleate and [^14C] triacylglycerol were analyzed with a bioimage analyzer (BAS2000 manufactured by FUJIFILM Corporation).

A further test concerns MRSA K24 strain. The test can be described thus: Imipenem activity-potentiating effect, paper-disc method on plate containing imipenem. It is filed as cell-based, methicillin-resistant Staphylococcus aureus. As to conditions: for MRSA (mm) [10 μg/6 mm disc]: diameter of inhibition circle, 10 μg agent per 6 mm paper disc, plate with imipenem 10 μg/mL, 37° C., 20 hours. As to the method:
In this example, clinically isolated MRSA K24 strain was used as an assay strain. A plate for control was prepared by adding 1.5% of agar (manufactured by Shimizu Shokuhin Kaisha, Ltd.) to Mueller-Hinton Broth (manufactured by DIFCO Laboratories), and a plate for assay was prepared by adding imipenem (trade name: Tienam for intramuscular injection, titer: 0.5, manufactured by Banyu Pharmaceutical Co., Ltd.) to the above composition so that the final concentration of imipenem was 10 μg/mL. These plates were used as assay plates. An inoculum solution was prepared by culturing the assay strain in Mueller-Hinton Broth for one night, and diluting the culture solution with the same culture medium so as to have a concentration of 0.5 McFarland units (about 10^8 cfu/mL). This inoculum solution was applied on each of the plates with a sterile cotton swab in accordance with the National Committee For Clinical Laboratory Standards (NCCLS) method. The antibacterial activities against the assay strain in the plates were evaluated by a paper-disc method as follows. Paper discs with a diameter of 6 mm impregnated with 10 μg of assay medical agents (eurypamides A, A′, B, and D, and Compounds (1) to (12)) were placed on each of the plates, and the plates were cultured at 37° C. for 20 hours.
On the plate for control, the assay strain was grown under the paper discs. […] In addition, the assay strain could be grown on the plate for assay. […] If the compound impregnated in the paper disc acts in combination with imipenem to exert anti-MRSA activity, growth of the assay strain would not be observed under and around the paper disc. Therefore, in this example, the imipenem activity-potentiating effect for MRSA is represented by a diameter of an inhibition circle (the diameter passing through the center of the paper disc) on the assay plates.

Setting [2] is: synthesis of [14C] cholesteryl ester from [14C] oleic acid, 14 hours culture.
Setting [3] is: Mus musculus, synthesis of [14C] cholesteryl ester from [14C] oleic acid, 14 hours culture, read-out: Macrophage [IC50 μg/mL].
Where [4] appears, read: mouse peritoneal macrophages, read-out: IC50 of inhibiting the production of cholesteryl oleate.
Setting [5] is: Mus musculus, 14 h, read-out: Macrophage [IC50 μg/mL].
Setting [6] is: Mus musculus, read-out: IC50 of inhibiting the production of cholesteryl oleate.

In brackets after ≈: the same amount, converted by molar mass. Like-named read-outs stand apart in the source and are kept apart here.

The values that follow come from US20080318842A1, “Cyclic Isodityrosine Derivatives” (priority 2004, published 2008).

Consider Eurypamide A′ [reference compound], for which the “Macrophage [IC50 μg/mL]” value in test [1] (setting [2]) is reported as “— (The symbol “-” in the column of macrophage in Table 1 means that the compound did not exhibit inhibition in its amount of 10 μg/mL)”.
In the case of `CC(OCc1ccccc1)[C@@H]1NC(=O)[C@@H](N)Cc2cc(I)c(O)c(c2)Oc2c(Br)cc(cc2Br)C[C@@H](C(=O)O)NC1=O` (some centres unmarked) [Compound (11)], in the test on MRSA K24 strain, the “MRSA (mm) [10 μg/6 mm disc]” value came to 12 mm and the “imipenem activity-potentiating effect (anti-MRSA activity in combination with imipenem), in words” value (“imipenem activity-potentiating effect” below) is given as “potentiate”. Further, in test [1] (setting [3]), the IC50 was greater than 10 µg/mL.
As for `COC(=O)[C@@H]1Cc2cc(Br)c(c(Br)c2)Oc2cc(cc(I)c2O)C[C@H](NC(=O)OCC2c3ccccc3-c3ccccc32)C(=O)N[C@@H](C(C)OCc2ccccc2)C(=O)N1` (some centres unmarked) [Compound (6)], the “imipenem activity-potentiating effect” value in the test on MRSA K24 strain was “do not potentiate”. For the same molecule, the IC50 in test [1] (setting [3]) and in test [1] (setting [4]) was 0.32 µg/mL (≈ 0.304 µM) in each case. Further, in test [1], the “effect of inhibiting the synthesis of a cholesteryl ester in macrophages, in words” value (“effect of inhibiting the synthesis … in words” for short) was “have an effect of inhibiting the synthesis of a cholesteryl ester in macrophages”.
`C[C@@H](O)[C@@H]1NC(=O)[C@@H](N)Cc2ccc(O)c(c2)Oc2ccc(cc2)C[C@@H](C(=O)O)NC1=O` [Eurypamide B, reference compound]: in test [1] (setting [2]), the “Macrophage [IC50 μg/mL]” value was “— (The symbol “-” in the column of macrophage in Table 1 means that the compound did not exhibit inhibition in its amount of 10 μg/mL)”.
`COC(=O)[C@@H]1Cc2cc(Br)c(c(Br)c2)Oc2cc(cc(I)c2O)C[C@H](N)C(=O)N[C@@H](C(C)OCc2ccccc2)C(=O)N1` (some centres unmarked) [Compound (5), Thr(O-benzyl)-dibromo-iodo-eurypamide B methyl ester]: in the test with MRSA K24 strain, the “MRSA (mm) [10 μg/6 mm disc]” value stood at 8 mm and the “imipenem activity-potentiating effect” value is “potentiate”. For the same molecule, the IC50 in test [1] (setting [3]) is greater than 10 µg/mL.
In the case of Eurypamide D [reference compound], the “Macrophage [IC50 μg/mL]” value in test [1] (setting [2]) is “— (The symbol “-” in the column of macrophage in Table 1 means that the compound did not exhibit inhibition in its amount of 10 μg/mL)”.
As to Eurypamide A [reference compound], in test [1] (setting [2]), the “Macrophage [IC50 μg/mL]” value is on record as “— (The symbol “-” in the column of macrophage in Table 1 means that the compound did not exhibit inhibition in its amount of 10 μg/mL)”.
With `COC(=O)[C@@H]1Cc2cc(Br)c(c(Br)c2)Oc2cc(cc(I)c2O)C[C@H](NC(=O)C(Cc2ccccc2)NC(=O)OC(C)(C)C)C(=O)N[C@@H](C(C)OCc2ccccc2)C(=O)N1` (some centres unmarked) [Compound (8)], in the test with MRSA K24 strain, the “imipenem activity-potentiating effect” value is “do not potentiate”. Also, the IC50 in test [1] (setting [3]) and in test [1] (setting [4]) was 5 µg/mL (≈ 4.64 µM) each time. The “effect of inhibiting the synthesis … in words” value in test [1] is “have an effect of inhibiting the synthesis of a cholesteryl ester in macrophages”.
For `CC(OCc1ccccc1)[C@@H]1NC(=O)[C@@H](NC(=O)OC(C)(C)C)Cc2cc(I)c(O)c(c2)Oc2c(Br)cc(cc2Br)C[C@@H](C(=O)O)NC1=O` (some centres unmarked) [Compound (9)], in the test with MRSA K24 strain, the “MRSA (mm) [10 μg/6 mm disc]” value stood at 17 mm and the “imipenem activity-potentiating effect” value is listed as “potentiate”. In test [1] (setting [5]), the IC50 is greater than 10 µg/mL.
On to `COC(=O)[C@@H]1Cc2cc(Br)c(c(Br)c2)Oc2cc(cc(I)c2O)C[C@H](NC(=O)OC(C)(C)C)C(=O)N[C@@H](C(C)O)C(=O)N1` (some centres unmarked) [Compound (12), N-Boc-dibromo-iodo-eurypamide B methyl ester], for which, in the test on MRSA K24 strain, the “MRSA (mm) [10 μg/6 mm disc]” value came out at 9 mm and the “imipenem activity-potentiating effect” value is recorded as “potentiate”. The IC50 in test [1] (setting [5]) was greater than 10 µg/mL.
Take `COC(=O)C1Cc2cc(Br)c(c(Br)c2)Oc2cc(cc(I)c2O)C[C@H](N)C(=O)N[C@@H]([C@@H](C)O)C(=O)N1` (some centres unmarked) [Compound (4), dibromo-iodo-eurypamide B methyl ester]: in the test on MRSA K24 strain, the “MRSA (mm) [10 μg/6 mm disc]” value is listed as 8 mm and the “imipenem activity-potentiating effect” value is “potentiate”. In addition, the IC50 in test [1] (setting [3]) was greater than 10 µg/mL.
For the molecule `COC(=O)[C@@H]1Cc2cc(Br)c(c(Br)c2)Oc2cc(cc(I)c2O)C[C@H](NC(=O)CCCCCNC(=O)OC(C)(C)C)C(=O)N[C@@H](C(C)OCc2ccccc2)C(=O)N1` (some centres unmarked) [Compound (7)], in the test on MRSA K24 strain, the “imipenem activity-potentiating effect” value is “do not potentiate”. For the same molecule, the IC50 in test [1] (setting [3]) and in test [1] (setting [4]) was 4.2 µg/mL (≈ 4.02 µM) each time. Besides, the “effect of inhibiting the synthesis … in words” value in test [1] is reported as “have an effect of inhibiting the synthesis of a cholesteryl ester in macrophages”.
Consider `C[C@@H](O)[C@@H]1NC(=O)[C@@H](NC(=O)OC(C)(C)C)Cc2cc(I)c(O)c(c2)Oc2c(Br)cc(cc2Br)CC(C(=O)O)NC1=O` (some centres unmarked) [Compound (3), N-Boc-dibromo-iodo-eurypamide B], for which, in the test on MRSA K24 strain, the “MRSA (mm) [10 μg/6 mm disc]” value was found to be 10 mm and the “imipenem activity-potentiating effect” value is “potentiate”. In addition, in test [1] (setting [5]), the IC50 was greater than 10 µg/mL.
Take `COC(=O)C1Cc2cc(Br)c(c(Br)c2)Oc2cc(cc(I)c2O)C[C@H](NC(=O)OC(C)(C)C)C(=O)N[C@@H]([C@H](C)OCc2ccccc2)C(=O)N1` (some centres unmarked) [Compound (2), N-Boc-Thr(O-benzyl)-dibromo-iodo-eurypamide B methyl ester]: the “MRSA (mm) [10 μg/6 mm disc]” value in the test with MRSA K24 strain turned out to be 8 mm. Also, the “imipenem activity-potentiating effect” value in the test with MRSA K24 strain was “potentiate”. Moreover, the IC50 in test [1] (setting [5]) and in test [1] (setting [6]) was 3 µg/mL (≈ 3.22 µM) throughout. Moreover, the “effect of inhibiting the synthesis … in words” value in test [1] was “have an effect of inhibiting the synthesis of a cholesteryl ester in macrophages”.
Consider `COC(=O)C1Cc2cc(Br)c(c(Br)c2)Oc2cc(cc(I)c2O)C[C@H](NC(=O)OCc2ccccc2)C(=O)N[C@@H]([C@H](C)OCc2ccccc2)C(=O)N1` (some centres unmarked) [Compound (1), N-Cbz-Thr(O-benzyl)-dibromo-iodo-eurypamide B methyl ester], for which, in the test with MRSA K24 strain, the “MRSA (mm) [10 μg/6 mm disc]” value came to 8 mm. The “imipenem activity-potentiating effect” value in the test with MRSA K24 strain is “potentiate”. The IC50 in test [1] (setting [5]) and in test [1] (setting [6]) was 3 µg/mL (≈ 3.11 µM) in each case. Besides, in test [1], the “effect of inhibiting the synthesis … in words” value is “have an effect of inhibiting the synthesis of a cholesteryl ester in macrophages”.
